experiment: Critical relative humidity of additives by moisture sorption analyzer (Test Example 1); assay type: physicochemical; conditions: of the additive (excipient) alone, moisture sorption analyzer DVS-1
Procedure: The orally administrable pharmaceutical composition of the present invention, to which sugars having a critical relative humidity of 85% or more at 25° C. as an excipient is added, suppresses increases in FTD and TPI related substances even stored under high-humidity conditions. A “critical relative humidity” herein means a well-known indicator representing the hygroscopicity, and refers to a relative humidity when a rapid increase in the amount of moisture absorbed in a sample is observed in the case where the relative humidity is increased. The critical relative humidity can be checked by measuring the change in the weight of a sample at 25° C. and a relative humidity of from 10 to 95% using, for example, a moisture sorption analyzer (DVS-1, Surface Measurement Systems Ltd.). “A critical relative humidity at 25° C. is 85% or more” means that moisture is not substantially absorbed when the relative humidity at 25° C. is less than 85%. Also, “no critical relative humidity” means that moisture is absorbed at a low humidity depending on the humidity, and a rapid increase in the amount of moisture absorbed associated with an increase in the relative humidity is not observed.
The critical relative humidity of additives at 25° C. shown in Tables 1 and 2 was measured using a moisture sorption analyzer (DVS-1, Surface Measurement Systems Ltd.).

Critical relative humidity (%, at 25° C.)	Compound
50-60%	OC[C@@H](O)[C@@H](O)[C@H](O)[C@@H](O)CO [D-sorbitol]
85 or more %	OC[C@H]1O[C@@](CO)(O[C@H]2O[C@H](CO)[C@@H](O)[C@H](O)[C@H]2O)[C@@H](O)[C@@H]1O [Sucrose, sucrose]
95 or more %	OC[C@@H](O)[C@@H](O)[C@H](O)[C@H](O)CO [D-mannitol]
75-85%	OC[C@@H](O)[C@H](O)[C@@H](O)CO [Xylitol, xylitol]

Compound	Critical relative humidity (%, at 25° C.)
O.OC[C@H]1O[C@@H](O[C@H]2[C@H](O)[C@@H](O)C(O)O[C@@H]2CO)[C@H](O)[C@@H](O)[C@H]1O (some centres unmarked) [Lactose hydrate, lactose hydrate]	95 or more %

From patent publication US20210220384A1, “ORAL ADMINISTRABLE PHARMACEUTICAL COMPOSITION” (TAIHO PHARMACEUTICAL CO., LTD., priority 2012, published 2021)
